Key:
in vivo = details: rat, po, 1.25 mg/kg
[1] = Crystal form stability under storage conditions (XRD, day 0 vs day 30); assay type: physicochemical; details: storage conditions of Table 3 (high temperature 60℃, high humidity 92.5%, high humidity 75%, light irradiation), sample of Example 11
[2] = Hygroscopicity experiment of crystalline form XI (DVS, dynamic vapour sorption); assay type: physicochemical; details: 25℃, sample of Example 1
[3] = Impurity stability under storage conditions (HPLC purity after 30 days); assay type: physicochemical; details: high temperature 60℃, high humidity 92.5%, high humidity 75% and light irradiation, sample of Example 11
[4] = Powder flowability experiment (tap density, compression coefficient); assay type: physicochemical
[5] = Dissolution experiment of crystalline form XI capsules (paddle method, pH 4.0 medium); assay type: physicochemical; details: capsules of form XI (Example 12), 900ml, 37℃, 75r/min, UV 250nm

Structure (SMILES) | AUC(0-t) at 24 h (in vivo) [ng·h/mL] | Cmax (in vivo) [ng/mL] | Tmax (in vivo) [h] | change of crystal form (XRD pattern) [1] | weight loss ([2]; relative humidity 0~40%) [%] | weight gain by moisture absorption ([2]; relative humidity 40~80%) [%] | change of purity (HPLC) [3] | flowability (comparison) ([4]; form XI (Example 12) vs form C (made according to CN100569753C)) | time at which dissolution is basically complete [5] [min] | compression coefficient (comparison) ([4]; compression coefficient (%) = 100% (tap density - bulk density)/tap density, form C (made according to CN100569753C) vs form XI (Example 12))
COc1cc2nccc(Oc3ccc(NC(=O)NC4CC4)c(Cl)c3)c2cc1C(N)=O [결정형 XI, 렌바티닙 메실레이트, 메실레이트 이수화물] | 22900 ± 2840 | 2290 ± 216 | 4 ± 1.73 | 결정형 변화가 없었다 | ~0.33 | ~0.25 | 큰 변화가 없었다 | 결정형 C의 유동성보다 훨씬 우수하며 | ~120 | 
COc1cc2nccc(Oc3ccc(NC(=O)NC4CC4)c(Cl)c3)c2cc1C(N)=O [결정형 C, 렌바티닙 메실레이트] |  |  |  |  |  |  |  |  |  | 결정형 XI의 압축 계수보다 훨씬 더 높으며

— patent KR20230003036A, “렌바티닙 메실레이트의 결정형 xi 및 이의 제조방법” (청두 이스턴 바이오파마슈티컬 컴퍼니 리미티드, priority 2020, dated 2021)
